The values that follow come from US5625056A, “Derivatives of cyclic guanosine-3',5'-monophosphorothioate” (BIOLOG Life Science Institute, priority 1992, dated 1997).

Each structure is given as a SMILES string. pKi: −log10 of the molar value.

One data set relates to cAK. The following applies: cited from earlier work.
Data set [1] deals with cAMP-dependent protein kinases type I (cAK I). To be noted: Botelho et al. 1988; cited from earlier work.
Data set [2] concerns cAMP-dependent protein kinases type II (cAK II). The following applies: Botelho et al. 1988; cited from earlier work.
A short description of a further data set: physchem. The following applies: reversed-phase hplc.
The target of data set [3] is T1, cGMP-dependent protein kinases (Bos taurus, UniProt P00516).
T1 construct: Isolation of cGK I from bovine lung; from tissue; host or cells: bovine lung
T1 sequence (P00516 2-671 limits assumed): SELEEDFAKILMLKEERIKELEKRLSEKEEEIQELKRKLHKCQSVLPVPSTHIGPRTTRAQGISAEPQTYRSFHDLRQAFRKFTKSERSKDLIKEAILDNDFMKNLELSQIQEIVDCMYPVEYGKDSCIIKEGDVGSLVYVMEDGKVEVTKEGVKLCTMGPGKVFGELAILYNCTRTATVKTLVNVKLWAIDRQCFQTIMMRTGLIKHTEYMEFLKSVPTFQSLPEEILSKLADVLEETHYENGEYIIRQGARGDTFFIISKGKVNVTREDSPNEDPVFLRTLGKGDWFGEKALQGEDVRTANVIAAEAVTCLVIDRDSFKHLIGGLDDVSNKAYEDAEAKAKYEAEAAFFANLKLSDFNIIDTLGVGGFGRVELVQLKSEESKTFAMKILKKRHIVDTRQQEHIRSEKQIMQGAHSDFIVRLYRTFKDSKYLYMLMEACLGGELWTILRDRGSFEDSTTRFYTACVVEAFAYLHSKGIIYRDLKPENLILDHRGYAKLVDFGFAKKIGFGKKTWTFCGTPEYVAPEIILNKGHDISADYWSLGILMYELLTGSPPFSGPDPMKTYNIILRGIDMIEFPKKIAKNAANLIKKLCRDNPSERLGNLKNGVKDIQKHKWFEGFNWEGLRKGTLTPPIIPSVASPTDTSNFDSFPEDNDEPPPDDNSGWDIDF
Put plainly: Inhibition/activation of cGMP-dependent protein kinase (cGK). It counts as biochemical, bovine. Here is the method: (§1) Isolation of cGK I from bovine lung and of cAK II from bovine heart is performed as has been already published (Walter et al., J. Biol. Chem., 255, 3757-3762 (1980)). Protein kinase activity is determined according to the method of Roskoski (Methods Enzymol., 99, 3-6 (1983)). In vitro data on membranes of human thrombocytes are obtained as has already been described by Halbrugge et al. (Eur. J. Biochem., 185, 41-50, (1989)).

Data set [4] has as its system cGMP-dependent phosphorylation in intact human thrombocytes. Put plainly: cGMP-dependent phosphorylation in intact human thrombocytes (in vivo). The data set is classed as cell-based. The procedure: (§2) Compounds with extraordinary good membrane permeability are tested in vivo with intact human thrombocytes according to Halbrugge et al. CJ. Biol. Chem., 265, 3088-3093 (1990)).

The target of a further data set is T2, cGK I (Bos taurus, UniProt P00516).
T2 construct: Isolation of cGK I from bovine lung; from tissue; host or cells: bovine lung
T2 sequence (P00516 1-671): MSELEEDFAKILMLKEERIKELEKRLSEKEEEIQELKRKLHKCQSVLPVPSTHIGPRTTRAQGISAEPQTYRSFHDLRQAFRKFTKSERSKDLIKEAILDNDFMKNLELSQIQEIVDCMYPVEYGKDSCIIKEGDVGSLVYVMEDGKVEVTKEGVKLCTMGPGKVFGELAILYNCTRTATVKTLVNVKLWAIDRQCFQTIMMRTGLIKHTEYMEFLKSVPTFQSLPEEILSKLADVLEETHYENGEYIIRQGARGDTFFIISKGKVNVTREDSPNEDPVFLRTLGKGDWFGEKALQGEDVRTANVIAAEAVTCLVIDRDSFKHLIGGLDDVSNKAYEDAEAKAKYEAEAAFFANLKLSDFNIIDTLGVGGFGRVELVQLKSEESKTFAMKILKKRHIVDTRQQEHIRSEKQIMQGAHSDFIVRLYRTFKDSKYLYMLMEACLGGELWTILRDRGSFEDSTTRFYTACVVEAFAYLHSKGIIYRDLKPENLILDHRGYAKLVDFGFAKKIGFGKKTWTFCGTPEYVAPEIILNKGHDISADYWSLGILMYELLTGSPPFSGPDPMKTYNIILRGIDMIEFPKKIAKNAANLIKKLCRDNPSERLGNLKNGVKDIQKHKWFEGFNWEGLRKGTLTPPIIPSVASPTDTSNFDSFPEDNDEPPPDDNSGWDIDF
Put plainly: Inhibition of isolated cGK I. The data set is classed as biochemical, bovine. Here is the method:
as §1

The nature of data set [5]: Cell membrane permeability. It counts as in vitro ADME.
The subject of data set [6] is phosphorylation of a 46/50 kDa-band in membranes of human thrombocytes. Put plainly: cGMP-modulated phosphorylation of a 46/50 kDa band in membranes of human thrombocytes. It counts as biochemical. Here is the method: as §1, §2
The test system of data set [7] is cGMP-inhibited phosphodieserases (cGI-PDE). Put plainly: Inhibition of cGMP-inhibited phosphodiesterases (cGI-PDE). The data set is classed as biochemical.
Another data set deals with T3, cAK II (Bos taurus, UniProt P00515).
T3 construct: of cAK II from bovine heart; from tissue; host or cells: bovine heart
T3 sequence (P00515 2-401 limits assumed): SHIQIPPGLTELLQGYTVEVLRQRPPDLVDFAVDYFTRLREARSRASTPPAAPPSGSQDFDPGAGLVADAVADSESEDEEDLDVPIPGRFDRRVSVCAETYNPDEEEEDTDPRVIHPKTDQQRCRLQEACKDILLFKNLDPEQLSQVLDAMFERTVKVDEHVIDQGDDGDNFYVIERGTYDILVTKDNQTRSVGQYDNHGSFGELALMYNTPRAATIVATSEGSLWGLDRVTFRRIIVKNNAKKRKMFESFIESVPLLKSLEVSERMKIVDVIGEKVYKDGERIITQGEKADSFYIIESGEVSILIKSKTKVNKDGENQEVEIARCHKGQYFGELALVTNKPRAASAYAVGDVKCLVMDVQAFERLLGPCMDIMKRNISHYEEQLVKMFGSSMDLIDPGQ
Put plainly: Activation of cAK II. It counts as biochemical, bovine. To be noted: at high concentrations. Here is the method: as §1

Data set [8] concerns cAMP-dependent phosphorylation of a 22- and a 240 kDa-band. Put plainly: cAMP-dependent phosphorylation of 22 and 240 kDa bands in membranes of human thrombocytes. The data set is classed as biochemical. Here is the method: as §1, §2
The conditions of data set [9]: reversed-phase HPLC; has been reported; cited from earlier work.
The target in data set [10] is T1, cGMP-dependent protein kinases. To be noted: background literature (Butt et al. 1990); cited from earlier work.
In the next data set the test system is perfused aorta muscle. Put plainly: SIN 1-stimulated relaxation in perfused aorta muscle.
The test system of data set [11] is cGMP signal transduction pathway. Put plainly: Selective block of the cGMP signal transduction pathway. To be noted: selectivity over cAMP-mediated effects.
Data set [12] relates to cGMP-dependent phosphorylation of three proteins of the masses 46, 50 and 130 kDa. Put plainly: cGMP-dependent phosphorylation of three proteins of 46, 50 and 130 kDa.

Broadly, the chromatographic logP is a lipophilicity value derived from retention on a column. A lower chromatographic logP goes with a more hydrophilic compound. The pKi is the negative decadic logarithm of the Ki, by convention in mol/L.

For the compound `Nc1ncnc2c1ncn2[C@@H]1O[C@@H]2CO[P@@](O)(=S)O[C@H]2[C@H]1O` [RP -cAMPS, adenosine-3',5'-monophosphorothioate], the cAMP antagonism entry in the data set on cAK (Botelho et al. 1988) is listed as “antagonist of cAMP”. Also, in data set [1], the “inhibition of cAK I” value is recorded as “competitive inhibitor”. The “inhibition of cAK II” value in [2] was “competitive inhibitor”.

The compound `Nc1nc2c(nc(Sc3ccc(Cl)cc3)n2[C@@H]2O[C@@H]3CO[P@](O)(=S)O[C@H]3[C@H]2O)c(=O)[nH]1` [SP -8-pCPT-cGMPS, Cyclic 8-(4-chlorophenylthio)-guanosine-3',5'-monophosphorothioate, SP -diastereomer] returned a chromatographic logP in “physchem” of 2.84. In [3] (isolated cGK), the “activation of isolated cGK” value is reported as “activator”. Besides, the “cGMP-dependent (cGMP-mediated) phosphorylation” value in data set [4] is “activator”.

`O=c1c2ncn([C@@H]3O[C@@H]4CO[P@@](O)(=S)O[C@H]4[C@H]3O)c2[nH]c2nc(-c3ccccc3)cn12` [RP -PET-cGMPS, Cyclic β-phenyl-1,N^2-ethenoguanosine-3',5'-monophosphorothioate, RP -diastereomer]: in the data set “physchem”, the chromatographic logP came out at 2.81.

`Nc1nc2c(nc(Sc3ccc(Cl)cc3)n2[C@@H]2O[C@@H]3CO[P@@](O)(=S)O[C@H]3[C@H]2O)c(=O)[nH]1` [RP -8-pCPT-cGMPS, Cyclic 8-(4-chlorophenylthio)-guanosine-3',5'-monophosphorothioate, RP -diastereomer]: on cGK I (isolated cGK I), the “type of inhibition of isolated cGK I” value is recorded as “competitive inhibitor”. Besides, the pKi at cGK I (read-out: inhibition constant Ki) is 6.15. Besides, the chromatographic logP in “physchem” came to 2.82. Further, the cell membrane permeability entry in [5] is “excellent cell membrane permeability”. Also, the “phosphorylation of a 46/50 kDa-band” value in [6] (membranes of human thrombocytes) is “inhibits the phosphorylation”. For the same compound, in [4], the “cGMP-dependent (cGMP-mediated) phosphorylation” value is given as “inhibits the cGMP-dependent phosphorylation even in intact human thrombocytes”. For the same compound, in data set [7], the “inhibition of cGI-PDE” value is on record as “poor inhibitor”. Moreover, the “agonism for cAK II” value on cAK II is “weakly partial agonist”. The “cAMP-dependent phosphorylation of a 22- and a 240 kDa-band” value in data set [8] was “not disturbed”.

In the data set “physchem”, `O=c1c2ncn([C@@H]3O[C@@H]4CO[P@](O)(=S)O[C@H]4[C@H]3O)c2[nH]c2nc(-c3ccccc3)cn12` [SP -PET-cGMPS, Cyclic β-phenyl-1,N^2-ethenoguanosine-3',5'-monophosphorothioate, SP -diastereomer] showed a chromatographic logP of 2.83.

Regarding `Nc1nc2c(ncn2[C@@H]2O[C@@H]3COP(=O)(O)O[C@H]3[C@H]2O)c(=O)[nH]1` [cGMP, guanosine-3',5'-monophosphate, reference compound], the “log KW” value in data set [9] is 0.85. This compound also displayed a chromatographic logP in “physchem” of 0.77.

With `Nc1nc2c(ncn2[C@@H]2O[C@@H]3CO[P@@](O)(=S)O[C@H]3[C@H]2O)c(=O)[nH]1` [RP -cGMPS, RP -Guanosine-3',5'-monophosphorothioate], the “inhibition/agonism of cAK” value in the data set with cAK (background literature) is on record as “inhibits cAK as well”. In addition, the “inhibitory properties / specificity for cGK” value in [10] is reported as “lacks the required specificity for cGMP-dependent protein kinase (cGK)”.

For the compound `O=c1c2nc(Br)n([C@@H]3O[C@@H]4CO[P@@](O)(=S)O[C@H]4[C@H]3O)c2nc2[nH]c(-c3ccccc3)cn12` [RP -8-Br-PET-cGMPS, Cyclic β-phenyl-1,N^2-etheno-8-bromoguanosine-3',5'-monophosphorothioate, RP -diastereomer], in “physchem”, the chromatographic logP was 3.22. The “SIN 1-stimulated relaxation” value in the data set on perfused aorta muscle is “inhibited”. Moreover, in data set [6] (thrombocyte membranes, relative to RP -8-pCPT-cGMPS), the “effectivity at thrombocyte membranes, factor over RP -8-pCPT-cGMPS” value is 5-10. Moreover, the “block of cGMP signal transduction pathway” value in [11] is on record as “blocks selectively the cGMP signal transduction pathway without affecting cAMP-mediated effects”. Further, the “type of inhibition of cGMP-dependent protein kinases” value in data set [3] was “competitive inhibitor”. In addition, the pKi in [3] (cGMP-dependent protein kinases, competitive inhibitor, read-out: inhibition constant Ki) was 7.52. Moreover, in data set [12], the “cGMP-dependent phosphorylation of three proteins” value was “inhibited”.
